What was measured:
[1] = system: PGP-induced PMN influx in the mouse lung; test: PGP-induced PMN influx in the mouse lung (lung-wash cell counts); assay type: in vivo, Balb/c mice; conditions: for Eos in lung-wash liquid / Monos in lung-wash liquid / Neutros in lung-wash liquid / Total cells in lung-wash liquid: PBS pre-treatment, atomization of the substance (10^-3 M, 30 min), 5 h after onset, ± SEM; for Influx of neutrophilic and eosinophilic granulocytes in the lungs: atomization of the substance
Method: Solutions were prepared of N—Ac-PGP (0.36 mg/ml; 10^−3 M) and N-methyl-PGP (0.32 mg/ml; 10^−3 M) in phosphate-buffered physiological salt (PBS). In an atomizing chamber, 6-8 weeks old Balb/c mice (groups of 4 mice) were subjected for 30 minutes to either N-acetyl-PGP or N-methyl-PGP. Control mice only received PBS. One hour prior to subjection in the atomizing chamber and one hour after the start of subjection each mouse received 50 μl of 1 mg/ml 4RTR. The treatment is outlined in the Table I below.
5 Hours after the onset of subjection the mice were sacrificed by administering an overdose of Nembutal. After the application of a tracheal canula the lungs were washed with 4 ml PBS. The lung-wash liquid was centrifuged (5 min.; 4° C.; 580 g) and the cell pellet was taken up in 150 μl PBS. The cells were counted under the microscope. To distinguish between neutrophilic and eosinophilic granulocytes and mononuclear cells (haematoxylin/eosin dye, H/E dye: Diff-Quick, Merz & Dade, A. G. Dübingen, Switzerland), the cytospin technique was applied (Buckley, T. L. and Nijkamp, F. P., “Airways hyperreactivity and cellular accumulation in a delayed-type hypersensitivity reaction in the mouse: modulation by capsaicin-sensitive nerves”. Am. J. Respir. Crit. Care Med. 149: 400-407 (1994)).

[2] = system: inflammatory cells in the bronchial-alveolar liquid; assay type: in vivo, C57B1/6J mice; conditions: for Number PMNs in bronchial-alveolar liquid / Total number infl. cells in bronchial-alveolar liquid: substance alone, aerosol on day 0, 2 and 7, 24 h after final treatment (day 8), n=3
Method: (§1) On day 0, 2 and 7, two groups C75Bl/6J mice received 30 minutes' treatment with an aerosol (in an atomizing chamber as described in example 1) comprising (i) vehicle (phosphate-buffered physiological salt solution), (ii) N—AcPGP (0.4 mg/ml) or (iii) N—AcPGP (0.4 mg/ml) and 4-RTR (1 mg/ml). 30 minutes prior to the aerosol, the mice of group (i) and (ii) received intranasal vehicle and the mice of group (iii), 4RTR (1 mg/ml). […] (see Table III).

[3] = system: alveolar dilatation (lung emphysema); test: Lung emphysema induced by N-AcPGP: mean linear intercept (Lm); assay type: in vivo, C75Bl/6J mice; conditions: N-AcPGP aerosol day 0, 2, 7; lungs on day 21; FIG. 1
Method: as §1
On day 21 the mice of the second group (which on day 0, 2, and 7 were treated in the same manner as the mice of the first group), were sacrificed by means of an overdose of anaesthetic (Nembutal) and the lungs were isolated and fixed by filling the lungs with Carnoy's fixative under a liquid pressure of 25 cm. The lungs were prepared for histological analysis. The mean linear intercept (Lm), indicative for alveolar dilatation, was calculated by placing a grid over the illustrations of 5 separate fields (300× magnification) per mouse lung. The total length of the lines was divided by the number of intercepts, resulting in the Lm, providing a measure for the average size of the bronchial volume of the lung.

Substance	Eos in lung-wash liquid [1]	Monos in lung-wash liquid [1]	Neutros in lung-wash liquid [1]	Total cells in lung-wash liquid [1]	Influx of neutrophilic and eosinophilic granulocytes in the lungs [1]	Increase of the total number of inflammatory cells in the bronchial-alveolar washing liquid in comparison with the vehicle control ([2]; N-AcPGP 0.4 mg/ml aerosol day 0, 2, 7, day 8) [fold]	Number PMNs in bronchial-alveolar liquid [2]	Total number infl. cells in bronchial-alveolar liquid [2]	Mean linear intercept (Lm), indicative for alveolar dilatation [3]
N-acetyl-Pro-Gly-Pro [N-AcPGP]	1.1 ± 0.6 ×10^4 cells/ml	28.3 ± 8.6 ×10^4 cells/ml	20.1 ± 7.5 ×10^4 cells/ml	49.5 ± 3.1 ×10^4 cells/ml	results in the influx of neutrophilic and eosinophilic granulocytes in the lungs	2	11.7 ± 0.8 ×10^5	55 ± 1 ×10^5	significant increase
FMLP	–	–	–	–	–	–	10.7± 3 ×10^5	61 ± 5 ×10^5	–
N-methyl-Pro-Gly-Pro [N-methylPGP]	0.2 ± 0.1 ×10^4 cells/ml	33.9 ± 3.4 ×10^4 cells/ml	11.9 ± 3.6 ×10^4 cells/ml	46.1 ± 3.2 ×10^4 cells/ml	results in the influx of neutrophilic and eosinophilic granulocytes in the lungs	–	–	–	–

Source: patent US7410806B2, “Compound for inhibiting the influx of polymorphonuclear leukocytes (PMNs) in a tissue, its selection, pharmaceutical compositions and use” (Fornix Biosciences N.V., priority 1999, dated 2008)
